Measured values taken from US11085056B2, “Transfection complexes and methods of using the same” (MOLECULAR TRANSFER, INC., priority 2015, dated 2021).

Tests used:
NL-1 iPS Cells = assay: Transfection of NL-1 iPS cells with DOTMA/DOPE/peptide and eGFP plasmid, fluorescent plate reader; assay type: cell-based; conditions: DOTMA/DOPE 1:1 plus peptide with RRRRRRRRRRRR (SEQ ID NO: 109) at n terminus; EF1Alpha eGFP plasmid; 42 hours
Human Fibroblast Cells = assay: Transfection of human fibroblast cells with DOTMA/DOPE/peptide and eGFP plasmid, fluorescent plate reader; assay type: cell-based; conditions: DOTMA/DOPE 1:1 plus peptide with RRRRRRRRRRRR (SEQ ID NO: 109) at n terminus; EF1Alpha eGFP plasmid; 0.01 mL complex; 42 hours
Summary of the method: (§1)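 Cells at 60-70% confluence got DOTMA/DOPE (1:1) mixed with peptides bearing an N-terminal R12 DNA-binding tag, complexed 10 min with EF1α-eGFP plasmid (5 μg/mL in OptiMEM); 0.01 or 0.02 mL complex per well. After 42 h at 37 °C, GFP read by fluorescence plate reader and % transfected cells by microscopy, relative to lipid without peptide.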

some examined cell types = assay: Transfection expression and % cells transfected over the no peptide control; assay type: cell-based; conditions: on some examined cell types
Summary of the method: as §1

HuVec Cells = assay: Transfection of HuVec cells with DOTMA/DOPE/peptide and eGFP plasmid, fluorescent plate reader; assay type: cell-based; conditions: DOTMA/DOPE 1:1 plus peptide with RRRRRRRRRRRR (SEQ ID NO: 109) at n terminus; EF1Alpha eGFP plasmid; 0.01 mL complex; 42 hours
Summary of the method: as §1

Jurkat Cells = assay: Transfection of Jurkat cells with DOTMA/DOPE/peptide and eGFP plasmid, fluorescent plate reader; assay type: cell-based; conditions: DOTMA/DOPE 1:1 plus peptide with RRRRRRRRRRRR (SEQ ID NO: 109) at n terminus; EF1Alpha eGFP plasmid; 0.02 mL complex; 42 hours
Summary of the method: as §1

HeLa Cells [1] = assay: Transfection of HeLa cells with DOTMA/DOPE/peptide and eGFP plasmid, fluorescent plate reader; assay type: cell-based; conditions: DOTMA/DOPE 1:1 plus peptide with RRRRRRRRRRRR (SEQ ID NO: 109) at n terminus; EF1Alpha eGFP plasmid; 0.01 mL complex; 42 hours
Summary of the method: as §1

HeLa Cells [2] = assay: Transfection of HeLa cells with DOTMA/SEQ ID NO: 72/peptide compared with Lipofectamine 2000; assay type: cell-based; conditions: fusogenic peptide 0.1 mg/mL
Summary of the method: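 HeLa cells at 60–70% confluence received 0.01 mL of complexes of EF1Alpha eGFP plasmid (5 μg/mL in OptiMEM) with DOTMA/DOPE (1:1) plus R12-linked peptide, with fusogenic peptide at 0.1 mg/mL final. GFP read by fluorescence plate reader and microscopy (% cells transfected) after 42 h at 37 °C.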

C2C12 Cells = assay: Transfection of C2C12 cells with DOTMA/DOPE/peptide and eGFP plasmid, fluorescent plate reader; assay type: cell-based, mouse; conditions: DOTMA/DOPE 1:1 plus peptide with RRRRRRRRRRRR (SEQ ID NO: 109) at n terminus; EF1Alpha eGFP plasmid; 0.02 mL complex; 42 hours
Summary of the method: as §1

[3] = 0.1 μL of DOTMA/SEQ ID NO: 72/Peptide in well of a 96 well plate
[4] = 0.2 μL of DOTMA/SEQ ID NO: 72/Peptide in well of a 96 well plate
[5] = 0.3 μL of DOTMA/SEQ ID NO: 72/Peptide in well of a 96 well plate
[6] = 0.4 μL of DOTMA/SEQ ID NO: 72/Peptide in well of a 96 well plate

Row | Substance | RF (Relative Fluorescence) of Transfection of NL-1 iPS Cells (NL-1 iPS Cells) | RF (Relative Fluorescence) of Transfection of Human Fibroblast Cells (Human Fibroblast Cells) | transfection expression and the % cells transfected over the no peptide control (some examined cell types) | RF (Relative Fluorescence) of Transfection of HuVec Cells (HuVec Cells) | RF (Relative Fluorescence) of Transfection of Jurkat Cells (Jurkat Cells) | RF (Relative Fluorescence) of Transfection of HeLa Cells (HeLa Cells [1]) | RF (Relative Fluorescence), DOTMA/SEQ ID NO: 72/Peptide, HeLa Cells (HeLa Cells [2]; [3]) | RF (Relative Fluorescence), DOTMA/SEQ ID NO: 72/Peptide, HeLa Cells (HeLa Cells [2]; [4]) | RF (Relative Fluorescence), DOTMA/SEQ ID NO: 72/Peptide, HeLa Cells (HeLa Cells [2]; [5]) | RF (Relative Fluorescence), DOTMA/SEQ ID NO: 72/Peptide, HeLa Cells (HeLa Cells [2]; [6]) | RF (Relative Fluorescence) of Transfection of C2C12 Cells (C2C12 Cells)
1 | 348 (HQQDLGTAGSCLRKFSTM; Peptidic transfection agent) [compound 348] | 21645 | 11802 | increased | 21214 | 15585 | 22289 | 17413 | 18615 | 16164 | 15054 | 8625
2 | 350 (SIGFRGDGQTC; Peptidic transfection agent) [compound 350] | 19132 | 7105 | increased | 13163 | 9184 | 13313 | 24092 | 23238 | 19802 | 22255 | 2631
3 | 351 (LNRQELFPFG; Peptidic transfection agent) [compound 351] | 24646 | 8061 | increased | 15379 | 9730 | 12279 | 7678 | 11499 | 10575 | 8791 | 3530
4 | 353 (KKQRFRHRNRKGYRSQ; Peptidic transfection agent) [compound 353] | 9248 | 8653 | increased | 8772 | 11107 | 29119 | 36315 | 44772 | 36882 | 25802 | 4291
5 | 355 (FRHRNRKGY; Peptidic transfection agent) [compound 355] | 7910 | 6821 | increased | 14810 | 8132 | 32628 | 18362 | 27990 | 22367 | 18289 | 1900
6 | 357 (SETTVKYIFRLHE; Peptidic transfection agent) [compound 357] | 15624 | 7167 | increased | 6009 | 2256 | 22679 | 7718 | 11798 | 9229 | 9107 | 4506
7 | 358 (GHRGPTGRPGKRGKQGQKGDS; Peptidic transfection agent) [compound 358] | 21956 | 5665 | increased | 25398 | 18820 | 15132 | 12331 | 12683 | 13686 | 11097 | 2271
8 | 360 (GDLGRPGRKGRPGPP; Peptidic transfection agent) [compound 360] | 27572 | 5347 | increased | 24042 | 16607 | 8516 | 9946 | 11168 | 10381 | 8995 | 2090
9 | 365 (ISRCQVCMKKRH; Peptidic transfection agent) [compound 365] | 6364 | 5219 | increased | 14764 | 5298 | 36093 | 26620 | 43775 | 36054 | 21540 | 5390
10 | 367 (TDIPPCPHGWISLWK; Peptidic transfection agent) [compound 367] | 17545 | 10036 | increased | 13354 | 4365 | 39008 | 10427 | 21411 | 23001 | 17529 | 16207
11 | 369 (TAIPSCPEGTVPLYS; Peptidic transfection agent) [compound 369] | 13124 | 7590 | increased | 6536 | 11085 | 14444 | 8737 | 16706 | 14880 | 12645 | 3322
12 | 375 (LAGSCLPVFSTL; Peptidic transfection agent) [compound 375] | 5196 | 7305 | increased | 5542 | 4272 | 41076 | 22457 | 30891 | 34887 | 29024 | 5633
